The assay addresses T1, human CCR10 (Homo sapiens, UniProt P46092).
T1 construct: expressed in transfected cells; host or cells: KJMGER8 cell (cell line derived from Namalwa cell); expression induced with 10 nmol/L β-estradiol
T1 sequence (P46092 1-362): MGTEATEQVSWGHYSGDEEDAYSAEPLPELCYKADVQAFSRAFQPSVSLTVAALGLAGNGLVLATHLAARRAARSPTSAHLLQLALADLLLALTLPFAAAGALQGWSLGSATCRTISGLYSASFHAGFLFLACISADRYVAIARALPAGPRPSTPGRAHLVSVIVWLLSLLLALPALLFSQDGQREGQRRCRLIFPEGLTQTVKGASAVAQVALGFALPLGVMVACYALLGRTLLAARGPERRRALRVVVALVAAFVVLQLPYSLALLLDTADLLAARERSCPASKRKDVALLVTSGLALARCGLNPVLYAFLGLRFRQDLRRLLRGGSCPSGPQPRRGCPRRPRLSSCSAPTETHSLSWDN
The experiment in a line: Calcium assay of human CCR10 (inhibition of CTACK-induced increase in intracellular calcium ion concentration in hCCR10G16 cells). The note with it: test compound 100 nmol/L; human recombinant CTACK; hCCR10G16 cells (KJMGER8/Namalwa-derived, Gα16 co-expressed); FLIPR or FDSS; read-out: Inhibitory rate (%) for an increase in calcium ion concentration. The class given is cell-based. Put shortly: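 KJMGER8-derived hCCR10G16 cells (human CCR10 plus Gα16, expression induced 24 h with 10 nmol/L β-estradiol) were dye-loaded and preincubated with compound for 30 min at 37 °C, then stimulated with CTACK (300 nmol/L stock). Calcium flux over ~5 min (max−min fluorescence) gave percent inhibition versus DMSO control.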
Consider `CCC(=O)NS(=O)(=O)c1cnn2c(Nc3cc(C)c(F)cc3Cl)c(C(=O)N3CCC(c4ccc(F)cc4)CC3)cnc12` [a-40, N-{7-(2-Chloro-4-fluoro-5-methylphenylamino)-6-[4-(4-fluorophenyl)piperidine-1-carbonyl]pyrazolo[1,5-a]pyrimidin-3-ylsulfonyl}propionamide], for which the inhibition at 0.1 µM was above 100%.
Turning to `Cc1ccc(Cl)c(Nc2c(C(=O)N3CCC4(CC3)OCc3ccccc34)cnc3c(S(=O)(=O)NC(=O)C4CCC4)cnn23)c1` [a-57, N-{7-(2-Chloro-5-methylphenylamino)-6-[3H-spiro(isobenzofuran-1,4′-piperidine)-1′-carbonyl]pyrazolo[1,5-a]pyrimidin-3-ylsulfonyl}cyclobutanecarboxamide], the inhibition at 0.1 µM is above 100%.
Turning to `Cc1cc(F)ccc1Nc1c(C(=O)N2CCC(c3ccccc3)CC2)cnc2c(S(=O)(=O)NC(=O)N3CCOCC3)cnn12` [a-68, N-[7-(4-Fluoro-2-methylphenylamino)-6-(4-phenylpiperidine-1-carbonyl)pyrazolo[1,5-a]pyrimidin-3-ylsulfonyl]morpholine-4-carboxamide], the inhibition at 0.1 µM is 85.9%.
To `CCN(CC)S(=O)(=O)c1cnn2c(Nc3ccc(F)cc3C)c(C(=O)N3CCC(c4ccccc4)CC3)cnc12` [a-62, N,N-Diethyl-7-(4-fluoro-2-methylphenylamino)-6-(4-phenylpiperidine-1-carbonyl)pyrazolo[1,5-a]pyrimidine-3-sulfonamide] belongs above 100%.
As for `CC(=O)NS(=O)(=O)c1cnn2c(Nc3cc(Cl)ccc3F)c(C(=O)N3CCC(c4ccc(F)cc4)CC3)cnc12` [a-33, N-{7-(5-Chloro-2-fluorophenylamino)-6-[4-(4-fluorophenyl)piperidine-1-carbonyl]pyrazolo[1,5-a]pyrimidin-3-ylsulfonyl}acetamide], the inhibition at 0.1 µM is above 100%.
Regarding `CCNC(=O)NS(=O)(=O)c1cnn2c(Nc3ccc(Cl)c(Cl)c3)c(C(=O)N3CCC(c4ccc(F)cc4)CC3)cnc12` [a-39, 7-(3,4-Dichlorophenylamino)-N-(ethylcarbamoyl)-6-[4-(4-fluorophenyl)piperidine-1-carbonyl]pyrazolo[1,5-a]pyrimidine-3-sulfonamide], the inhibition at 0.1 µM is above 100%.
Take `CCNS(=O)(=O)c1cnn2c(Nc3cc(C)ccc3Cl)c(C(=O)N3CCC(c4ccc(F)cc4)CC3)cnc12` [a-15, N-Ethyl-7-(2-chloro-5-methylphenylamino)-6-[4-(4-fluorophenyl)piperidine-1-carbonyl]pyrazolo[1,5-a]pyrimidine-3-sulfonamide]: the inhibition at 0.1 µM is 87.8%.
In the case of `O=C(NC1CC1)NS(=O)(=O)c1cnn2c(Nc3ccc(F)cc3Cl)c(C(=O)N3CCC(c4ccc(F)cc4)CC3)cnc12` [a-21, 7-(2-Chloro-4-fluorophenylamino)-N-(cyclopropylcarbamoyl)-6-[4-(4-fluorophenyl)piperidine-1-carbonyl]pyrazolo[1,5-a]pyrimidine-3-sulfonamide], the inhibition at 0.1 µM is above 100%.
To `Cc1cc(F)ccc1Nc1c(C(=O)N2CCC(c3ccccc3)CC2)cnc2c(S(=O)(=O)NC(=O)C(F)(F)F)cnn12` [a-70, 2,2,2-Trifluoro-N-[7-(4-fluoro-2-methylphenylamino)-6-(4-phenylpiperidine-1-carbonyl)pyrazolo[1,5-a]pyrimidin-3-ylsulfonyl]acetamide] belongs above 100%.
As to `O=C(c1cnc2c(S(=O)(=O)Nc3ncccn3)cnn2c1Nc1cc(Cl)ccc1Cl)N1CCC(c2ccc(F)cc2)CC1` [a-80, 7-(2,5-Dichlorophenylamino)-6-[4-(4-fluorophenyl)piperidine-1-carbonyl]-N-(pyrimidin-2-yl)pyrazolo[1,5-a]pyrimidine-3-sulfonamide], the inhibition at 0.1 µM was above 100%.
Regarding `CCC(=O)NS(=O)(=O)c1cnn2c(Nc3cc(C(F)(F)F)ccc3Cl)c(C(=O)N3CCC(c4ccc(F)cc4)CC3)cnc12` [a-29, N-{7-(2-Chloro-5-trifluoromethylphenylamino)-6-[4-(4-fluorophenyl)piperidine-1-carbonyl]pyrazolo[1,5-a]pyrimidin-3-ylsulfonyl}propionamide], the inhibition at 0.1 µM was above 100%.
For `CCNC(=O)NS(=O)(=O)c1cnn2c(Nc3cc(C)ccc3Cl)c(C(=O)N3CC4(C3)CN(c3ccc(F)cc3)C4)cnc12` [a-61, 7-(2-Chloro-5-methylphenylamino)-N-(ethylcarbamoyl)-6-[6-(4-fluorophenyl)-2,6-diazaspiro[3,3]heptane-2-carbonyl]pyrazolo[1,5-a]pyrimidine-3-sulfonamide], the inhibition at 0.1 µM was 24.3%.

Source of the values: patent US20140221340A1 (KYOWA HAKKO KIRIN CO., LTD., priority 2011, published 2014).
